Measurements published in article PMC12469503, “Exploring the Antimicrobial and Antiviral Properties of Cryptic Peptides from Human Fibrinogen” (International Journal of Molecular Sciences, 2025).
pIC50: −log10 of the molar value. Like-named read-outs stand apart in the source and are kept apart here. Ends that are not written are not given here.

Tests used:
[1] = tested on: P. aeruginosa PAO1 biofilm; test: Antibiofilm detachment assay, confocal microscopy; conditions: peptide 20 µM on 24 h pre-formed biofilm, further 24 h, Live/Dead BacLight, three independent experiments
[2] = tested on: Salmonella enteriditis 706 RIVM
[3] = tested on: Klebsiella pneumonia ATCC 700603; conditions: ATCC 700603
[4] = tested on: Pseudomonas aeruginosa RP73 (clinical isolate)
[5] = tested on: Enterococcus faecalis ATCC 29212
[6] = tested on: Pseudomonas aeruginosa PAO1; conditions: PAO1
[7] = tested on: Salmonella typhimurium ATCC 14028; test: MIC, broth microdilution; format: cell-based; conditions: Table 1; broth microdilution, Nutrient Broth 0.5×, overnight 37 °C; minimum of three independent experiments
Protocol: MIC values were determined on Gram-positive and Gram-negative bacteria by the broth microdilution method for antimicrobial peptides previously described [33, 89] with minor modifications.
Bacterial strains were grown in Luria-Bertani (LB) medium overnight at 37 °C and then diluted in Nutrient Broth at a final concentration of ~5 × 10^5 CFU/mL per well. Twofold serial dilutions of peptides were carried out in the test wells to obtain concentrations ranging from 50 μM to 0.05 μM. Plates were incubated overnight at 37 °C.
MIC value was defined as the lowest concentration at which growth was inhibited. Three independent experiments were performed for each MIC value.

[8] = tested on: P. aeruginosa PAO1 biofilm; test: Antibiofilm attachment assay, confocal microscopy; conditions: peptide 20 µM added with bacteria, stained after 4 h, Live/Dead BacLight, three independent experiments, t-test vs control
[9] = format: physicochemical
Excerpt: The six peptides were produced in the recombinant form by using a previously described strategy that exploit the frog protein onconase (ONC) as a carrier to drive the peptide to inclusion bodies. The fusion proteins were expressed in Escherichia coli strain BL21DE3, using the pET22b(+) vector and named: ONC-DCless-H6-(P)FIBα-GVV27, ONC-DCless-H6-(P)FIBα-SFR22, ONC-DCless-H6-(P)FIBβ-GVV28, ONC-DCless-H6-(P)FIBβ-NWK23, ONC-DCless-H6-(P)FIBγ-GII30, ONC-DCless-H6-(P)FIBγ-TWK25 (nucleotide and amino acid sequences are reported in Supplementary Figure S1). […] Peptides were released by hydrolysis of an acidic labile “Asp-Pro” sequence leading to recombinant peptides endowed with an additional Pro residue at the N-terminus. Thus, the recombinant forms of these peptides are herein named (P)FIBα-GVV27, (P)FIBα-SFR22, (P)FIBβ-GVV28, (P)FIBβ-NWK23, (P)FIBγ-GII30, (P)FIBγ-TWK25. Hydrolysis efficiencies of 95% were estimated for all the recombinant proteins (Supplementary Figure S3). To purify the recombinant peptides from the hydrolysis mixtures, the carrier and the uncleaved fusion protein were selectively precipitated by increasing the pH to 7 exploiting the fact that ONC is insoluble at pH higher than 5, whereas most AMPs are soluble also at neutral pH. […] Therefore, purification of (P)FIBα-SFR22, (P)FIBα-GVV27, (P)FIBβ-NWK23 and (P)FIBγ-TWK25 was first performed by selective precipitation, to remove the carrier and the uncleaved fusion protein, followed by Reverse Phase High-Performance Liquid Chromatography (RP-HPLC) on a C18 column, whereas purification of (P)FIBβ-GVV28 and (P)FIBγ-GII30 was performed directly by RP-HPLC omitting the selective precipitation step. Final yields of all recombinant peptides ranged from approximately 6 to 12 mg per liter of LB culture. Peptide purity, as determined by RP-HPLC, typically varied between 95% and 99% (Supplementary Figure S4).
Peptides (P)FIBα-GVV27, (P)FIBα-SFR22, (P)FIBβ-NWK23 and (P)FIBγ-TWK25 were separated from the carrier and the uncleaved fusion proteins as previously described. The hydrolysis mixture was neutralized to pH 7–7.2 by adding 1 M NH3 and incubated for 1 h at 25 °C under nitrogen atmosphere in a water bath. […] Supernatant and insoluble fraction were analyzed by SDS-PAGE. Concentration of the peptide into the soluble fraction was determined by spectrophotometric analyses using extinction coefficients (Supplementary Table S1) calculated by the ProtParam tool. After the selective precipitation step, purification of the peptide was performed by RP-HPLC. The linear gradients used are listed in Supplementary Table S2. Purification of (P)FIBβ-GVV28 and (P)FIBγ-GII30 was performed directly by RP-HPLC, omitting the selective precipitation step. Purified peptides were lyophilized and dissolved in deionized water. Samples were stored at −80 °C under nitrogen atmosphere. Purity of peptides was evaluated by RP-HPLC on Europa Protein 300 C18 column (5 μm, 25 × 1) using the linear gradients listed in Supplementary Table S2. The identity of the peptides was confirmed by mass spectrometry.

[10] = tested on: Staphylococcus aureus ATCC 6538P; conditions: ATCC 6538
[11] = tested on: Pseudomonas aeruginosa PA14
[12] = tested on: Pseudomonas aeruginosa PAO1; conditions: for MBC: PAO1; for MBC/MIC: Table 2, Pseudomonas aeruginosa PAO1
[13] = tested on: Escherichia coli ATCC 25922
[14] = tested on: Staphylococcus aureus ATCC 6538P; conditions: for MBC: ATCC 6538; for MBC/MIC: Table 2, Staphylococcus aureus ATCC 6538P
[15] = tested on: Acinetobacter baumanii ATCC 17878
HCoV-229E = conditions: Vero cells; for antiviral activity against HCoV-229E: co-treatment assay, from 50 μM peptide
Sheep Red Blood Cells [16] = test: Hemolysis assay; conditions: read-out: IC50 (concentration required to induce 50% hemolysis), peptide 0.78–100 µM, 37 °C, absorbance 405 nm, 1% SDS positive control, triplicate
Protocol: (§1) To assess the safety profile of the FIB-derived peptides, their hemolytic activity was evaluated by measuring the release of hemoglobin from sheep red blood cells after 1-h incubation with increasing peptide concentrations.
(§2) Briefly, Sheep Red Blood Cells were diluted in PBS 1× to reach a final concentration of 2%. Aliquots of diluted erythrocytes (100 μL) were added to each peptide solution (0–100 μM; 100 μL) in 96-well microtiter plates, and the mixture was incubated for 30 min under shaking (3000 rpm) at 37 °C. Following the incubation, a 3 min centrifugation at 4 °C was performed, and 50 µL of the supernatant from each sample were transferred to a 96 well plate. […] Hemolysis percentage was calculated by comparing samples to controls containing PBS (negative control) and 1% SDS (v/v) in PBS solution (positive control, inducing complete lysis). Hemolysis%=(Abs405 nm peptide−Abs405 nm negative control)/(Abs405 nm positive control−Abs405 nm negative control)×100.

Sheep Red Blood Cells [17] = tested on: Sheep Red Blood Cells
Protocol: as §1, §2

HSV-1 = conditions: Vero cells
P. aeruginosa PAO1 = conditions: PAO1, 16 h
Protocol: Plates were incubated 16 h at 37 °C. FIC index was calculated as follows: FICA + FICB, where FICA = MIC of drug A in combination/MIC of drug A alone, and FICB = MIC of drug B in combination/MIC of drug B alone.

[18] = Table 1, broth microdilution, Nutrient Broth 0.5×, overnight 37 °C, minimum of three independent experiments
[19] = Table 1, broth microdilution, Nutrient Broth 0.5×, ~5 × 10^5 CFU/mL, overnight 37 °C, minimum of three independent experiments
[20] = peptide 1 h before infection or 1 h after infection

Substance	SYTO 9 / PI signal, detachment assay [1]	MIC S. ent. [2] [µM]	MIC K. pne. [3] [µM]	MIC RP73 ([4]; RP73 (clinical isolate)) [µM]	MIC E. fae. [5, 18] [µM]	MIC PAO1 [6] [µM]	MIC S. typ. [7] [µM]	fluorescence signal of SYTO 9 (live cells), attachment assay [8]	solubility / aggregation at pH 7 [9]	MIC S. aur. [10] [µM]	MIC PA14 [11, 18] [µM]	MBC [12] [µM]	MBC/MIC [12]	MIC E. coli ([13]; ATCC 25922) [µM]	MBC [14] [µM]	MBC/MIC [14]	MIC A. bau. [15, 18] [µM]	antiviral activity against HCoV-229E (HCoV-229E)	MIC E. fae. ([5]; ATCC 29212) [µM]	pIC50 (Sheep Red Blood Cells [16])	other results
H-PGVVWVSFRGADYSLRAVRMKIRPLVTQ [(P)FIBα-GVV27]	reduction of the SYTO 9 signal coupled with an increase of the PI signal	12.5	50	3.12	6.25	6.25	6.25	significantly reduced	soluble at pH 7	6.25	6.25	6.25	1	12.5	6.25	1	6.25	strong antiviral activity	–	–	–
H-PSFRGADYSLRAVRMKIRPLVTQ [(P)FIBα-SFR22]	–	>50	>50	6.25	–	12.5	25	did not cause any reduction	soluble at pH 7	12.5	–	12.5	1	25	12.5	1	–	–	6.25	< 4.00	MIC PA14 ([11]; PA14): 12.5 µM; release of hemoglobin at 100 µM (Sheep Red Blood Cells [17]): limited release of hemoglobin; MIC A. bau. ([15]; ATCC 17878): 25 µM; antiviral activity against HSV-1 (HSV-1; co-treatment assay, from 50 μM peptide): no significant effect
H-PTWKTRWYSMKKTTMKIIPFNRLTIG [(P)FIBγ-TWK25]	significantly reducing the SYTO 9 signal	–	6.25	–	3.12	3.12	3.12	significantly reduced	soluble at pH 7	1.56	3.12	3.12	1	–	1.56	1	3.12	absence of efficacy	–	~4.00	MIC S. ent. [2, 18]: 3.12 µM; MIC RP73 [4, 18]: 3.12 µM; MIC E. coli [13, 19]: 3.12 µM; release of hemoglobin at 100 µM (Sheep Red Blood Cells [17]): limited release of hemoglobin
H-PGIIWATWKTRWYSMKKTTMKIIPFNRLTIG [(P)FIBγ-GII30]	–	12.5	25	3.12	6.25	12.5	6.25	significantly reduced	particularly prone to aggregation and precipitation	6.25	6.25	12.5	1	12.5	6.25	1	6.25	strong antiviral activity	–	–	pIC50 (HCoV-229E; read-out: IC50 against HCoV-229E, virus pre-treatment assay (virus incubated with peptide at 37 °C before infection)): 5.89
H-PGVVWMNWKGSWYSMRKMSMKIRPFFPQQ [(P)FIBβ-GVV28]	significantly reducing the SYTO 9 signal	–	25	6.25	–	6.25	12.5	significantly reduced	particularly prone to aggregation and precipitation	3.12	–	6.25	1	6.25	3.12	1	–	strong antiviral activity	6.25	–	MIC S. ent. [2, 18]: 12.5 µM; MIC PA14 ([11]; PA14): 6.25 µM; MIC A. bau. ([15]; ATCC 17878): 6.25 µM; antiviral activity against HCoV-229E in cell pre-treatment and post-infection treatment (HCoV-229E; [20]): appreciable antiviral activity; antiviral activity against HSV-1 in cell pre-treatment and post-infection treatment (HSV-1; [20]): appreciable antiviral activity
GIIWATWKTRWYSMKKTTMKIIPFNRLTIG [FIBγ-GII30]	–	12.5	12.5	3.12	6.25	6.25	6.25	–	–	6.25	6.25	–	–	–	–	–	6.25	–	–	–	FICI of peptide/tobramycin combinations (P. aeruginosa PAO1): 0.5–0.53; MIC E. coli [13, 19]: 6.25 µM
